IC50 data for 4 molecules are collected here from paper PMC4397911 (Bioorganic & medicinal chemistry letters, 2013).

What is called IC50 is the point on the concentration scale where inhibition reaches its midpoint. A high value points to weaker potency.

Experiment [1] has as its target NA from Virus H3N2 (soluble viral NA, N2) (Influenza A virus, UniProt Q91MA2). Kind of experiment: biochemical. The following applies: IC50 inhibition of soluble NA from Virus H3N2.
For experiment [2], the target named is NA from Virus H5N1 (soluble viral NA, N1) (Influenza A virus, UniProt Q6DPL2). Kind of experiment: biochemical. Particulars: IC50 inhibition of soluble NA from Virus H5N1.
NA from Virus H5N1 (soluble viral NA, N1), sequence (Q6DPL2 35-449 limits assumed): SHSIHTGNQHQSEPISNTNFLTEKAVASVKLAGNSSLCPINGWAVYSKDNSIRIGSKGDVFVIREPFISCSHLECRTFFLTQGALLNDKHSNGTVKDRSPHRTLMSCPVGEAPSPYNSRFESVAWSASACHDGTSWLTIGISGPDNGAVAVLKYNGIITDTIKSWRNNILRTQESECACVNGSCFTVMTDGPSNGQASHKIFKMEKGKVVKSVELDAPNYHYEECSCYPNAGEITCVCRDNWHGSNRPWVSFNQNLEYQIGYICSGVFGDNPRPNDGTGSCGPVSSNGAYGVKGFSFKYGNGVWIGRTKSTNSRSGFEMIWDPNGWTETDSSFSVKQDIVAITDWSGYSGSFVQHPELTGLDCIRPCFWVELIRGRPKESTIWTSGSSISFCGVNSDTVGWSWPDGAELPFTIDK

NA from Virus H3N2 (soluble viral NA, N2), sequence (Q91MA2 31-469 limits assumed): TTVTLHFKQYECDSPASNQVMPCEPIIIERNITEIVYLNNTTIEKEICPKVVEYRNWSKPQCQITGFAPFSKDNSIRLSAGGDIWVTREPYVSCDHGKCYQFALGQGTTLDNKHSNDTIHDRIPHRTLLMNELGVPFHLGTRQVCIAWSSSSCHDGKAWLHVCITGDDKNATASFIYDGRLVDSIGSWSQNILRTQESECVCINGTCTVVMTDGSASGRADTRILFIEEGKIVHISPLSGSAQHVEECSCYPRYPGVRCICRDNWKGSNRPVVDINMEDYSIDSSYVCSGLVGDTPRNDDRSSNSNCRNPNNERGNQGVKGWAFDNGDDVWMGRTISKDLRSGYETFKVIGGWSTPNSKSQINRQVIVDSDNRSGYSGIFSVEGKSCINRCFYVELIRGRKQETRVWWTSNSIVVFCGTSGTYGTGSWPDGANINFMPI

Turning to `CC(=O)N[C@H]1[C@H]([C@H](O)[C@H](O)CO)OC(SCCOCCOCCOCCOCCSC2(C(=O)O)C[C@H](N)[C@@H](NC(C)=O)[C@H]([C@H](O)[C@H](O)CO)O2)(C(=O)O)C[C@@H]1N` (stereo partly shown) [PentaEG-SA], the values for the IC50 in experiment [1] and in experiment [2] were 10 ± 2 µM and 1.1 ± 0.1 µM, respectively.

As for `CC(=O)N[C@H]1[C@H]([C@H](O)[C@H](O)CO)OC(SCCCCCCS)(C(=O)O)C[C@@H]1N` (stereo partly shown) [SA], the IC50 in experiment [1] and in experiment [2] was 60 to 180 µM in each case.

Turning to `CC(=O)N[C@H]1[C@H]([C@H](O)[C@H](O)CO)OC(SCCOCCOCCOCCOCCOCCSC2(C(=O)O)C[C@H](N)[C@@H](NC(C)=O)[C@H]([C@H](O)[C@H](O)CO)O2)(C(=O)O)C[C@@H]1N` (stereo partly shown) [HexaEG-SA], the IC50 in experiment [1] is 11 ± 2 µM; in experiment [2], 0.57 ± 0.06 µM.

On to `CC(=O)N[C@H]1[C@H]([C@H](O)[C@H](O)CO)OC(SCCCCCCS)(C(=O)O)C[C@@H]1NC(=N)N` (stereo partly shown) [SG], for which the IC50 in experiment [2] turned out to be 0.1 ± 0.02 µM.
